Laboratory results published in ChEMBL document CHEMBL1201862, “PubChem BioAssay data set” (2004).
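Results reflect a 48-hour exposure of cells in 96-well plates to compound at five concentrations. GI50: concentration for 50% inhibition of growth.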 Activity calls are given as the source filed them. No stated cut-off is given here; in the data, active = GI50 up to about 1.1 µM and inactive = higher.

Tests used:
Test in all cases: inhibition of tumour cell growth, NCI panel, 48 h
ACHN = tested on: ACHN
BT-549 = tested on: BT-549
CCRF-CEM = tested on: CCRF-CEM
DU-145 = tested on: DU-145
EKVX = tested on: EKVX
HCC 2998 = tested on: HCC 2998
Hs-578T = tested on: Hs-578T
IGROV-1 = tested on: IGROV-1
LOX IMVI = tested on: LOX IMVI
MDA-MB-231 = tested on: MDA-MB-231
NCI-H226 = tested on: NCI-H226
OVCAR-3 = tested on: OVCAR-3
RXF 393 = tested on: RXF 393
SK-MEL-2 = tested on: SK-MEL-2
SK-MEL-5 = tested on: SK-MEL-5
SN12C = tested on: SN12C
SNB-75 = tested on: SNB-75
UACC-257 = tested on: UACC-257
HL-60 = tested on: HL-60
MCF7 = tested on: MCF7

Measured: GI50

CN(C)c1nc2n(CCO)c(-c3ccccc3)c(-c3ccccc3)nc-2c(=O)n1
inactive: ACHN > 100 µM | BT-549 > 100 µM | CCRF-CEM > 100 µM | DU-145 > 100 µM | EKVX > 100 µM | HCC 2998 > 100 µM | Hs-578T > 100 µM | IGROV-1 > 100 µM | LOX IMVI > 100 µM | MDA-MB-231 > 100 µM | NCI-H226 > 100 µM | OVCAR-3 > 100 µM | RXF 393 > 100 µM | SK-MEL-2 > 100 µM | SK-MEL-5 > 100 µM | SN12C > 100 µM | SNB-75 21.7 µM | UACC-257 > 100 µM

CCCCCCCCCCCCOP(=O)(O)OP(=O)(O)OCC1OC(n2cc(C)c(=O)[nH]c2=O)CC1O (stereo unspecified)
inactive: ACHN > 100 µM | BT-549 > 100 µM | CCRF-CEM > 100 µM | EKVX > 100 µM | HCC 2998 > 100 µM | HL-60 > 100 µM | Hs-578T > 100 µM | IGROV-1 > 100 µM | LOX IMVI > 100 µM | MCF7 > 100 µM | MDA-MB-231 > 100 µM | NCI-H226 > 100 µM | OVCAR-3 > 100 µM | RXF 393 > 100 µM | SK-MEL-2 > 100 µM | SK-MEL-5 > 100 µM | SN12C > 100 µM | SNB-75 > 100 µM | UACC-257 > 100 µM

COc1ccc(/C=C2\C[C@H]3[C@@H]4CCC5=C/C(=N/O)CC[C@]5(C)[C@H]4CC[C@]3(C)\C2=N\O)cc1OC
inactive: ACHN 14.5 µM | BT-549 57.8 µM | CCRF-CEM 6.76 µM | DU-145 63.4 µM | EKVX 3.36 µM | HCC 2998 10.7 µM | HL-60 4.72 µM | Hs-578T > 100 µM | IGROV-1 47.4 µM | LOX IMVI 18.8 µM | MCF7 6.87 µM | NCI-H226 2.51 µM | OVCAR-3 9.1 µM | RXF 393 28.4 µM | SK-MEL-2 15.9 µM | SK-MEL-5 2.75 µM | SN12C 12.7 µM | SNB-75 > 100 µM | UACC-257 6.07 µM

COc1cc(OC)c(-c2ccc(OCc3ccccc3)c3c(OC)cc(C)cc23)c2c1C(C)=N[C@H](C)C2
inactive: ACHN 2.25 µM | BT-549 3.31 µM | CCRF-CEM 1.99 µM | DU-145 2.38 µM | EKVX 2.4 µM | HL-60 2.2 µM | Hs-578T 2.29 µM | IGROV-1 1.87 µM | LOX IMVI 1.88 µM | MDA-MB-231 2.33 µM | NCI-H226 2.64 µM | OVCAR-3 2.25 µM | RXF 393 2.77 µM | SK-MEL-2 2.25 µM | SK-MEL-5 2.27 µM | SN12C 2.04 µM | SNB-75 2.29 µM | UACC-257 2.17 µM

CC(C)(C)OC(=O)N1CC(O)O[C@H](c2ccccc2)[C@@H]1c1ccccc1 (stereo partly specified)
inactive: BT-549 17.8 µM | CCRF-CEM 21.6 µM | DU-145 25.5 µM | EKVX 19.5 µM | Hs-578T 32.4 µM | IGROV-1 18.9 µM | LOX IMVI 35.7 µM | MDA-MB-231 28.2 µM | NCI-H226 20.6 µM | OVCAR-3 15.6 µM | RXF 393 15.1 µM | SK-MEL-2 14.5 µM | SK-MEL-5 27.9 µM | SN12C 38.2 µM | SNB-75 24.8 µM | UACC-257 17.7 µM

N=C(N)NC1C(O)C(O)C(O)C(NC(=N)N)C1O (stereo unspecified)
inactive: ACHN > 100 µM | BT-549 > 100 µM | CCRF-CEM > 100 µM | DU-145 > 100 µM | EKVX > 100 µM | HCC 2998 > 100 µM | HL-60 > 100 µM | Hs-578T > 100 µM | IGROV-1 > 100 µM | LOX IMVI > 100 µM | MCF7 > 100 µM | MDA-MB-231 > 100 µM | OVCAR-3 > 100 µM | RXF 393 > 100 µM | SK-MEL-2 > 100 µM | SK-MEL-5 > 100 µM | SN12C > 100 µM | SNB-75 > 100 µM | UACC-257 > 100 µM

C=CCCC(=O)N1CCC(C(=O)OCC)C1=O (stereo unspecified)
inactive: ACHN > 100 µM | BT-549 > 100 µM | CCRF-CEM > 100 µM | DU-145 > 100 µM | EKVX > 100 µM | HL-60 > 100 µM | Hs-578T > 100 µM | IGROV-1 > 100 µM | LOX IMVI > 100 µM | MDA-MB-231 > 100 µM | NCI-H226 90.8 µM | RXF 393 > 100 µM | SK-MEL-2 > 100 µM | SK-MEL-5 > 100 µM | SN12C > 100 µM | SNB-75 > 100 µM | UACC-257 > 100 µM

Fc1ccc(OCc2ccc3nc(-c4ccccc4)c(Cl)nc3c2)cc1
inactive: ACHN 25.4 µM | BT-549 31.1 µM | CCRF-CEM 25.7 µM | DU-145 30.5 µM | EKVX 39.6 µM | HCC 2998 40.5 µM | HL-60 33.3 µM | Hs-578T 24.7 µM | IGROV-1 25.1 µM | LOX IMVI 88.5 µM | MCF7 53.1 µM | MDA-MB-231 20 µM | OVCAR-3 47.6 µM | SK-MEL-2 41.9 µM | SK-MEL-5 17 µM | SN12C 56.6 µM | SNB-75 16.7 µM | UACC-257 > 100 µM

CC1(C)CN=C(Nc2ccc(F)cc2)S1
inactive: ACHN > 100 µM | BT-549 > 100 µM | CCRF-CEM > 100 µM | DU-145 > 100 µM | EKVX > 100 µM | HCC 2998 > 100 µM | HL-60 > 100 µM | Hs-578T > 100 µM | IGROV-1 > 100 µM | LOX IMVI > 100 µM | MCF7 > 100 µM | NCI-H226 > 100 µM | OVCAR-3 > 100 µM | RXF 393 > 100 µM | SK-MEL-2 > 100 µM | SK-MEL-5 > 100 µM | SN12C > 100 µM | SNB-75 > 100 µM | UACC-257 > 100 µM

CC(=O)OCC1OC(Oc2cc(C)c(O)cc2C/C=C(\C)CC/C=C(\C)CC(=O)CC(C)C)C(O)C(OC(C)=O)C1OC(C)=O (stereo unspecified)
inactive: ACHN 14.2 µM | BT-549 10.6 µM | CCRF-CEM 9.82 µM | DU-145 23.3 µM | EKVX 4.6 µM | HCC 2998 10.7 µM | HL-60 10.8 µM | Hs-578T 11.9 µM | IGROV-1 29.4 µM | LOX IMVI 13 µM | MCF7 12.8 µM | MDA-MB-231 11.2 µM | OVCAR-3 8.81 µM | RXF 393 9.77 µM | SK-MEL-2 10.2 µM | SK-MEL-5 8.13 µM | SN12C 15.2 µM | SNB-75 > 50 µM | UACC-257 12.1 µM

CCOc1c2ccsc2c(OCC)c2ccsc12
inactive: ACHN 7.1 µM | BT-549 > 28.8 µM | CCRF-CEM 3.77 µM | DU-145 5 µM | EKVX > 29.6 µM | HCC 2998 6.56 µM | HL-60 2.07 µM | Hs-578T 4.21 µM | IGROV-1 5.06 µM | LOX IMVI 2.61 µM | MCF7 3.59 µM | MDA-MB-231 8.57 µM | OVCAR-3 3.52 µM | RXF 393 3.59 µM | SK-MEL-2 > 30.1 µM | SK-MEL-5 3.34 µM | SN12C 20.6 µM | SNB-75 3.31 µM | UACC-257 > 29.1 µM
